Like-named read-outs stand apart in the source and are kept apart here.
Experiments:
[1] = system: α-1 adrenoreceptors; details: cited from earlier work; for urinary flow rates and subjective symptom scores, longer term studies: BPH patients
[2] = molecular target: T1, α-1B adrenoreceptor (rat spleen) (Rattus norvegicus, UniProt P15823); test: Functional antagonism: inhibition of phenylephrine-induced contraction of rat spleen; design: species or system tissue; details: for more potent effect on spleen smooth muscle: rat spleen versus the other tissues, in words
T1 construct: contraction of rat spleen; from tissue; host or cells: rat spleen
T1 sequence (P15823 1-515): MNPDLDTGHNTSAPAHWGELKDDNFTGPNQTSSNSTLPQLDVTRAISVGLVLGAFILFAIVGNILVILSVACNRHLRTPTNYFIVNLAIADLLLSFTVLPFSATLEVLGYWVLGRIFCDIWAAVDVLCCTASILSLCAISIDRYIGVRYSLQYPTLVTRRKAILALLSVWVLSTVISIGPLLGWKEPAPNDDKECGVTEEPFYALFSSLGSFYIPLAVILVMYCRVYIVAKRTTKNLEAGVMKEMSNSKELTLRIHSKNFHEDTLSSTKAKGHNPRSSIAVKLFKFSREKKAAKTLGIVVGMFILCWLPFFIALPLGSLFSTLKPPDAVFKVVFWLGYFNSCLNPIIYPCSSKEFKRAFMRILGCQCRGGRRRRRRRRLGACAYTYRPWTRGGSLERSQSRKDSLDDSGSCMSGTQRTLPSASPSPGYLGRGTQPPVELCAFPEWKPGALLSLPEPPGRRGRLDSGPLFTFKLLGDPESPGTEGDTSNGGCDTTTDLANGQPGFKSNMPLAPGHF
Text: (§1) Functional assays indicative of pharmacologically defined α-1 adrenoreceptors were used to further characterize compounds. […] For each of these models, agonist dose response curves were repeated against increasing concentrations of test agent to derive a Schild plot [log ([…]) against log (molarity of test agent)] to determine the pA2.

[3] = molecular target: T2, α-1b (hamster) adrenoreceptor (Mesocricetus auratus, UniProt P18841); test: biochemical; details: read-out: Radioligand Binding Ki, 1b (Hamster)
T2 sequence (P18841 1-515): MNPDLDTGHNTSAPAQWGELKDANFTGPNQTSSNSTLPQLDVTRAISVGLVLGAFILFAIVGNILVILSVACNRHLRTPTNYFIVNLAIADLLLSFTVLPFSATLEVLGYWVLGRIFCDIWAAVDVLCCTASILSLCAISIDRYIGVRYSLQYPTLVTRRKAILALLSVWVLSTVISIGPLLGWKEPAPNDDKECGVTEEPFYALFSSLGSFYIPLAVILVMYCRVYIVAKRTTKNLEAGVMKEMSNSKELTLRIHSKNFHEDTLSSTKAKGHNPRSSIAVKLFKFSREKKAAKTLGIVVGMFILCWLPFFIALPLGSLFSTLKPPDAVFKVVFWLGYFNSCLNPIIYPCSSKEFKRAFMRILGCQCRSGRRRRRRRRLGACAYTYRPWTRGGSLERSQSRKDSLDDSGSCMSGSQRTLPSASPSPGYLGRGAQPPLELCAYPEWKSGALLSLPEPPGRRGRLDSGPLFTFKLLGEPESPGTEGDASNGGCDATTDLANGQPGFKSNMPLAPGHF
Protocol: (§2) In the following, for purposes of discussing alpha-1 adrenoreceptor subtypes, the IUPHAR convention of using lower case letters to define molecular clones and upper case letters to indicate pharmacologically defined adrenoreceptors has been followed. Moreover, the newly recommended nomenclature for alpha-1 (α1a, α1b, α1d) has been used.
(§3) Additionally, binding affinity against the pharmacologically defined α-1A adrenoreceptor (rat submaxillary gland) was measured.
(§4) The cDNA clones encoding the α-1 adrenoreceptors (α-1a, α-1b, and α-1d) were obtained from TULCO (Triangle Universities Licensing Consortium, Research Triangle Park, NC) and inserted into the eukaryotic expression vector SnaB30. In this vector, expression of the adrenoreceptor gene is under the transcriptional control of an SV40 early promoter. Positive drug selection is provided by a neomycin-resistance gene. Mouse fibroblast cells (LTK) were transfected with the α1 expression plasmids and grown in Dulbecco's modified Eagle's medium (DMEM) containing 10% fetal calf serum and 30 μM G418. Stable G418-resistant parental lines were generated, with successful expression of adrenoreceptor protein monitored using radioligand binding techniques. Stable single cell clones derived from the parental lines were screened in adrenoreceptor binding assays to identify clones having high adrenoreceptor density. […]

[4] = molecular target: T3, α-1a (bovine) adrenoreceptor (Bos taurus, UniProt P18130); test: Radioligand binding, [3H]-prazosin displacement, cloned α-1a expressed in LTK cells; details: cloned bovine α-1a, LTK cell membranes, [3H]prazosin 0.2 nM
T3 construct: expressed in transfected cells; host or cells: mouse fibroblast LTK cells, vector SnaB30, cDNA from TULCO
T3 sequence (P18130 1-466): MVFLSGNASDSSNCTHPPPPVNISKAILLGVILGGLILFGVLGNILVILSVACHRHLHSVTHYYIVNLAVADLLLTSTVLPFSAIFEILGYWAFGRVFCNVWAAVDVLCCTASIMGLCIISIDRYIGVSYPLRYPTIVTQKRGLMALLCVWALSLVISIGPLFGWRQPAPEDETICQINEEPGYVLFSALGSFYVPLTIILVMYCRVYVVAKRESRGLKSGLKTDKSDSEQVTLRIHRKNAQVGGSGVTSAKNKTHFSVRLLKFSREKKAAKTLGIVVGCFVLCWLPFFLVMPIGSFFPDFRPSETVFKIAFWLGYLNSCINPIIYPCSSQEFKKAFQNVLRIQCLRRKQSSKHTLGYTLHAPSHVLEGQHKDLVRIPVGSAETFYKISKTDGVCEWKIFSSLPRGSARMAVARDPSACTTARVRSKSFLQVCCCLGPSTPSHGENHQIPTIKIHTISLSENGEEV
Protocol: as §2, §3, §4

[5] = molecular target: T4, α-1A adrenoreceptor (rat submaxillary gland) (Rattus norvegicus, UniProt P43140); test: Radioligand binding, [3H]-prazosin displacement, α-1A (rat submaxillary gland); details: [3H]prazosin 0.2 nM
T4 construct: Rat submaxillary glands were used for α-1A adrenoreceptors; from tissue; host or cells: rat submaxillary gland membranes
T4 sequence (P43140 1-466): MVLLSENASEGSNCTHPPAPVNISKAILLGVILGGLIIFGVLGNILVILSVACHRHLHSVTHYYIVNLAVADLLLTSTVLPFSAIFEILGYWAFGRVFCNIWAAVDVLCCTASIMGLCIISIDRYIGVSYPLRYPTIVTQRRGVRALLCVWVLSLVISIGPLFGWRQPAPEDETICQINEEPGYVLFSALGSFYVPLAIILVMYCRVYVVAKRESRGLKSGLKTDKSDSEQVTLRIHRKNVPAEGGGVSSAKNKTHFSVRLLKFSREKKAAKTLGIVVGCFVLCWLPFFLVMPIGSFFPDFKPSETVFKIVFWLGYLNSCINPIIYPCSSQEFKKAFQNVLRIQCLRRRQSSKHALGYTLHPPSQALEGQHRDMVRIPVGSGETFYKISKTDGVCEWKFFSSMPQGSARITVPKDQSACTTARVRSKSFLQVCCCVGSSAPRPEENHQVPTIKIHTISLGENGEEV
Protocol: as §2, §3
Cells were detached from the roller bottles by incubating for 15 minutes at 37° C. in a Tris-EDTA solution (10 mM Tris, 100 mM NaCl, 1 mM EDTA, pH=7.4). The cell suspension from each roller bottle was decanted into tared centrifuge tubes and kept on ice. An aliquot of each cell suspension was generally taken for cell counting. […] The supernatant was decanted and the pellet weighed to determine the wet weight of cells. Cells were washed a final time in 40 vol 5 mM Tris-HCl, 5 mM EDTA, pH=7.7, and centrifuged at 40,000×G for 10 minutes. Cells were homogenized in 10 mL of 50 mM Tris-HCl, 5 mM EDTA (pH=7.4) and diluted to 40 mL/tube. Homogenates were centrifuged at 40,000×G for 10 minutes. […]
Receptor binding assays for α-1 adrenoreceptors were performed essentially as described by Greengrass and Bremner (Eur. J. Pharmacol. 55: 323-326 (1979)). […] Radioactivity was determined by standard liquid scintillation techniques.

[6] = molecular target: T5, α-1A adrenoreceptor (rat vas deferens) (Rattus norvegicus, UniProt P43140); test: Functional antagonism: inhibition of phenylephrine-induced contraction of rat vas deferens; design: species or system tissue; details: Schild
T5 construct: contraction of rat vas deferens; from tissue; host or cells: rat vas deferens
T5 sequence (P43140 1-466): T4 sequence (P43140 1-466)
Text: as §1

Structure (SMILES)	urinary flow rates and subjective symptom scores, longer term studies [1]	more potent effect on spleen smooth muscle [2]	further results
COc1cc2nc(N3CCN(C(=O)C4CCCO4)CC3)nc(N)c2cc1OC (centres unmarked) [Terazosin, terazosin]	significant improvements in urinary flow rates and subjective symptom scores	a more potent effect on spleen smooth muscle by approximately an order of magnitude	–
COc1ccc2c(c1)[C@@H]1CN(CCCn3c(=O)[nH]c4c(sc5ncccc54)c3=O)C[C@@H]1CO2 (racemic) [Example 77, 3-[3-((±)-cis-8-Methoxy-1,2,3,3a,4,9b-hexahydro-[1]-benzopyrano[3,4-c]pyrrol-2-yl)propyl]-pyrido[3',2':4,5]thieno[3,2-d]pyrimidine-2,4(1H,3H)-dione]	–	–	Ki [3]: 10000 nM
COc1cc2nc(N3CCN(C(=O)c4ccco4)CC3)nc(N)c2cc1OC [Prazosin, prazosin]	significant improvements in urinary flow rates and subjective symptom scores	a more potent effect on spleen smooth muscle by approximately an order of magnitude	urinary incontinence during antihypertensive treatment ([1]; women, antihypertensive treatment): urinary incontinence developed in women
COc1cc2nc(N3CCN(C(=O)C4COc5ccccc5O4)CC3)nc(N)c2cc1OC (centres unmarked) [Doxazosin, doxazosin]	significant improvements in urinary flow rates and subjective symptom scores	a more potent effect on spleen smooth muscle by approximately an order of magnitude	–
O=C(NC1CCN(CCc2c[nH]c3ccccc23)CC1)c1ccccc1 [indoramin]	significant improvements in urinary flow rates and subjective symptom scores	–	–
COc1cccc2c1[C@@H]1CN(CCCCn3c(=O)[nH]c4c(sc5nc(Cl)ccc54)c3=O)C[C@@H]1CO2 [Example 32, 3-[4-((3aR,9bR)-cis-9-Methoxy-1,2,3,3a,4,9b-hexahydro-[1]-benzopyrano[3,4-c]pyrrol-2-yl)butyl]-7-chloro-pyrido[3',2':4,5]thieno[3,2-d]pyrimidine-2,4(1H,3H)-dione]	–	–	Ki [4]: 0.093 nM; Ki [5]: 1.01 nM; In Vitro Characterization (pA2), Rat Spleen ([2]; rat spleen, phenylephrine, Schild): 7.24; Ki ([3]; cloned hamster α-1b, LTK cell membranes, [3H]prazosin 0.2 nM): 9.95 nM; In Vitro Characterization (pA2), Rat Vas [6]: 9.46
